# pEC50: −log10 of the molar value. Activity calls are given as the source filed them. No cut-off for these calls is given here.
# What was measured:
# [1] = test system: Human immunodeficiency virus 1; assay type: functional, organism-based; settings: Human immunodeficiency virus 1, NL4-3, MT2
# [2] = test system: Human immunodeficiency virus 1; assay: microbe, parasite or virus in culture; settings: Human immunodeficiency virus 1, NL-RLuc, MT2, 120 h
# Description: Antiviral activity against pseudotype HIV1 NL-RLuc infected in human MT2 cells measured on day 5 postinfection by luciferase reporter gene assay
# [3] = test system: Human immunodeficiency virus 1; assay: Antiviral activity against 0.006 MOI HIV1 NL4-3 infected in human MT2 cells measured after 5 days by RT SPA; assay type: functional, organism-based; settings: Human immunodeficiency virus 1, NL4-3, MT2, 120 h
# [4] = test system: Human immunodeficiency virus 1; assay: microbe, parasite or virus in culture; settings: Human immunodeficiency virus 1, NL4-3, MT2, 120 h
# Description: Antiviral activity against 0.005 MOI wild type HIV1 NL4-3 infected in human MT2 cells measured after 5 days by MTS assay
# [5] = test system: Human immunodeficiency virus 1; assay: microbe, parasite or virus in culture; settings: Human immunodeficiency virus 1, NL4-3, MT2
# Description: Antiviral activity against 0.02 MOI wild type HIV1 NL4-3 infected in 2 hr-pretreated human MT2 cells measured after 5 days by MTS assay
# [6] = test system: Human immunodeficiency virus 1; assay: microbe, parasite or virus in culture; settings: Human immunodeficiency virus 1, NL4-3, MT2; remark: listed apart in the source
# Description: Antiviral activity against 0.005 MOI wild type HIV1 NL4-3 infected in 2 hr-pretreated human MT2 cells measured after 5 days by MTS assay
# [7] = test system: Human immunodeficiency virus 1; assay: microbe, parasite or virus in culture; settings: Human immunodeficiency virus 1, subtype B-RF, MT2
# Description: Antiviral activity against HIV1 subtype B-RF infected in 1 hr-pretreated human MT2 cells assessed as inhibition of multicycle replication measured on day 5 postinfection by RT SPA
# [8] = test system: Human immunodeficiency virus 1; assay: Antiviral activity against HIV1 subtype B-NL4-3 infected in 3 hrs pretreated human MT2 cells assessed as inhibition of multicycle replication measured on day 5 postinfection by RT SPA; assay type: functional, organism-based; settings: Human immunodeficiency virus 1, subtype B-NL4-3, MT2
# [9] = test system: Human immunodeficiency virus 1; assay type: functional, organism-based; settings: Human immunodeficiency virus 1, NL4-3, MT2; remark: listed apart in the source
# [10] = test system: Human immunodeficiency virus 1; assay: microbe, parasite or virus in culture; settings: Human immunodeficiency virus 1, NL4-3, MT2, 120 h; remark: listed apart in the source
# Description: Antiviral activity against 0.01 MOI wild type HIV1 NL4-3 infected in human MT2 cells measured after 5 days by MTS assay
# [11] = test system: Human immunodeficiency virus 1; assay: Antiviral activity against HIV1 infected in human CEM-SS cells after 10 days by MTT assay; assay type: functional, organism-based; settings: Human immunodeficiency virus 1, CEM-SS, 240 h
# [12] = test system: Human immunodeficiency virus 1; assay: microbe, parasite or virus in culture; settings: Human immunodeficiency virus 1, subtype B-ASM 034, PBMC
# Description: Antiviral activity against HIV1 subtype B-ASM 034 infected in 1 hr-pretreated PBMC cells assessed as inhibition of p24 antigen production measured on day 5 postinfection by ELISA
# [13] = test system: Human immunodeficiency virus 1; assay: microbe, parasite or virus in culture; settings: Human immunodeficiency virus 1, NL4-3, MT2, 120 h; remark: listed apart in the source
# Description: Antiviral activity against 0.02 MOI wild type HIV1 NL4-3 infected in human MT2 cells measured after 5 days by RT SPA
# [14] = test system: Human immunodeficiency virus 1; assay: Antiviral activity against 0.006 MOI HIV1 NL4-3 infected in 2 hr-pretreated human MT2 cells measured after 5 days by RT SPA; assay type: functional, organism-based; settings: Human immunodeficiency virus 1, NL4-3, MT2
# [15] = test system: Human immunodeficiency virus 1; assay: microbe, parasite or virus in culture; settings: Human immunodeficiency virus 1, NL4-3, MT2; remark: listed apart in the source
# Description: Antiviral activity against 0.01 MOI wild type HIV1 NL4-3 infected in 2 hr-pretreated human MT2 cells measured after 5 days by RT SPA
# [16] = test system: Human immunodeficiency virus 1; assay type: functional, organism-based; settings: NL4-3, 2.5 uM
# [17] = test system: Human immunodeficiency virus 1; assay: microbe, parasite or virus in culture; settings: Human immunodeficiency virus 1, NL4-3, MT2, 120 h; remark: listed apart in the source
# Description: Antiviral activity against 0.02 MOI wild type HIV1 NL4-3 infected in human MT2 cells measured after 5 days by MTS assay
# [18] = test system: Human immunodeficiency virus 1; assay: microbe, parasite or virus in culture; settings: Human immunodeficiency virus 1, NL4-3, MT2; remark: listed apart in the source
# Description: Antiviral activity against 0.02 MOI wild type HIV1 NL4-3 infected in 2 hr-pretreated human MT2 cells measured after 5 days by RT SPA
# [19] = test system: Human immunodeficiency virus; assay: Antiviral activity against HIV infected in CD4+ lymphocyte by fluorescence-activated cell sorter assay; assay type: functional, organism-based; settings: Human immunodeficiency virus 1
# [20] = test system: Human immunodeficiency virus 1; assay: microbe, parasite or virus in culture; settings: Human immunodeficiency virus 1, subtype B-ASM 044, PBMC
# Description: Antiviral activity against HIV1 subtype B-ASM 044 infected in 1 hr-pretreated PBMC cells assessed as inhibition of p24 antigen production measured on day 5 postinfection by ELISA
# [21] = test system: Human immunodeficiency virus 1; assay: Antiviral activity against 0.006 MOI HIV1 NL4-3 infected in 1 hr-pretreated human MT2 cells measured after 5 days by RT SPA; assay type: functional, organism-based; settings: Human immunodeficiency virus 1, NL4-3, MT2
# [22] = test system: Human immunodeficiency virus 1; assay: Antiviral activity against pseudotype HIV1 NL-Luc infected in 24 hrs pretreated HEK293 cells by phenosense assay; assay type: functional, organism-based; settings: Human immunodeficiency virus 1, NL-Luc
# [23] = test system: Human immunodeficiency virus 1; assay: microbe, parasite or virus in culture; settings: Human immunodeficiency virus 1, NL4-3, MT2, 120 h; remark: listed apart in the source
# Description: Antiviral activity against 0.01 MOI wild type HIV1 NL4-3 infected in human MT2 cells measured after 5 days by RT SPA
# [24] = test system: Human immunodeficiency virus 1; assay: Antiviral activity against HIV1 subtype B-NL4-3 infected in 2 hrs pretreated human MT2 cells assessed as inhibition of multicycle replication measured on day 5 postinfection by RT SPA; assay type: functional, organism-based; settings: Human immunodeficiency virus 1, subtype B-NL4-3, MT2
# [25] = test system: Human immunodeficiency virus 1; assay: Antiviral activity against HIV1 NL4-3 harboring M184L mutant RT infected in human MT2 cellssmeasured after 7 passages on day 34 postinfection; assay type: functional, organism-based; settings: Human immunodeficiency virus 1, NL4-3, MT2
# [26] = Cmax in human at 1 mg, po; settings: in vivo
# [27] = test system: Human immunodeficiency virus 1; assay: microbe, parasite or virus in culture; settings: Human immunodeficiency virus 1, subtype B-92US076, PBMC
# Description: Antiviral activity against HIV1 subtype B-92US076 infected in 1 hr-pretreated PBMC cells assessed as inhibition of p24 antigen production measured on day 5 postinfection by ELISA
# [28] = test system: Human immunodeficiency virus 1; assay: microbe, parasite or virus in culture; settings: Human immunodeficiency virus 1, NL4-3, MT2; remark: listed apart in the source
# [29] = test system: Human immunodeficiency virus 1; assay: microbe, parasite or virus in culture; settings: Human immunodeficiency virus 1, NL4-3, MT2; remark: listed apart in the source
# Description: Antiviral activity against 0.005 MOI wild type HIV1 NL4-3 infected in 2 hr-pretreated human MT2 cells measured after 5 days by RT SPA
# [30] = test system: Human immunodeficiency virus 1; assay: microbe, parasite or virus in culture; settings: Human immunodeficiency virus 1, subtype B-NL4-3, MT2
# Description: Antiviral activity against HIV1 subtype B-NL4-3 infected in 1 hr-pretreated human MT2 cells assessed as inhibition of multicycle replication measured on day 5 postinfection by RT SPA
# [31] = test system: Human immunodeficiency virus 1; assay: microbe, parasite or virus in culture; settings: Human immunodeficiency virus 1, NL4-3, MT2; remark: listed apart in the source
# Description: Antiviral activity against 0.05 MOI wild type HIV1 NL4-3 infected in 2 hr-pretreated human MT2 cells measured after 5 days by MTS assay
# [32] = test system: Human immunodeficiency virus 1; assay: microbe, parasite or virus in culture; settings: Human immunodeficiency virus 1, subtype B-LAI, MT2
# Description: Antiviral activity against HIV1 subtype B-LAI infected in 1 hr-pretreated human MT2 cells assessed as inhibition of multicycle replication measured on day 5 postinfection by RT SPA
# [33] = test system: Human immunodeficiency virus 1; assay: Antiviral activity against pseudotype HIV1 LAI-Luc infected in human MT2 cells measured on day 3 postinfection by luciferase reporter gene assay; assay type: functional, organism-based; settings: Human immunodeficiency virus 1, LAI-Luc, MT2, 72 h
# [34] = test system: Human immunodeficiency virus 1; assay: microbe, parasite or virus in culture; settings: Human immunodeficiency virus 1, NL4-3, MT2, 120 h; remark: listed apart in the source
# Description: Antiviral activity against 0.05 MOI wild type HIV1 NL4-3 infected in human MT2 cells measured after 5 days by RT SPA
# [35] = test system: Human immunodeficiency virus 1; assay: Antiviral activity against pseudotype HIV1 LAI-Luc infected in CD4-positive human HeLa cells measured on day 3 postinfection by luciferase reporter gene assay; assay type: functional, organism-based; settings: Human immunodeficiency virus 1, LAI-Luc, 72 h
# [36] = test system: Human immunodeficiency virus 1; assay: microbe, parasite or virus in culture; settings: Human immunodeficiency virus 1, NL4-3, MT2, 120 h; remark: listed apart in the source
# Description: Antiviral activity against 0.005 MOI wild type HIV1 NL4-3 infected in human MT2 cells measured after 5 days by RT SPA
# CEM-SS = assay: Cytotoxicity against human CEM-SS cells after 10 days by MTT assay; assay type: cell-based; settings: 240 h
# [37] = test system: Human immunodeficiency virus 1; assay: microbe, parasite or virus in culture; settings: Human immunodeficiency virus 1, NL4-3, MT2; remark: listed apart in the source
# Description: Antiviral activity against 0.01 MOI wild type HIV1 NL4-3 infected in 2 hr-pretreated human MT2 cells measured after 5 days by MTS assay
# [38] = test system: Human immunodeficiency virus 1; assay: microbe, parasite or virus in culture; settings: Human immunodeficiency virus 1, NL4-3, MT2, 120 h; remark: listed apart in the source
# Description: Antiviral activity against 0.05 MOI wild type HIV1 NL4-3 infected in human MT2 cells measured after 5 days by MTS assay
# [39] = test system: Human immunodeficiency virus 1; assay: Antiviral activity against 0.005 MOI HIV1 NL4-3 harboring wild type RT infected in human MT2 cells by phenosense assay; assay type: functional, organism-based; settings: Human immunodeficiency virus 1, NL4-3, MT2
# [40] = test system: Human immunodeficiency virus 1; assay: Antiviral activity against HIV1 3B infected in MOLT-4/3B cells assessed as inhibition of mature virus release measured after 4 days of infection by RT assay; assay type: functional, organism-based; settings: Human immunodeficiency virus 1, 3B, MOLT-4, 96 h
# [41] = test system: Human immunodeficiency virus 1; assay: Antiviral activity against pseudotype HIV1 LAI-Luc infected in human PBMC measured on day 3 postinfection by luciferase reporter gene assay; assay type: functional, organism-based; settings: Human immunodeficiency virus 1, LAI-Luc, 72 h
# [42] = test system: Human immunodeficiency virus 1; assay: microbe, parasite or virus in culture; settings: Human immunodeficiency virus 1, subtype B-HXB2, MT2
# Description: Antiviral activity against HIV1 subtype B-HXB2 infected in 1 hr-pretreated human MT2 cells assessed as inhibition of multicycle replication measured on day 5 postinfection by RT SPA
# [43] = test system: Human immunodeficiency virus 1; assay: microbe, parasite or virus in culture; settings: Human immunodeficiency virus 1, subtype B-SF-2, MT2
# Description: Antiviral activity against HIV1 subtype B-SF-2 infected in 1 hr-pretreated human MT2 cells assessed as inhibition of multicycle replication measured on day 5 postinfection by RT SPA
# Hepatitis B virus = assay: Antiviral activity against Hepatitis B virus; assay type: functional, organism-based
# [44] = test system: Human immunodeficiency virus 1; assay: microbe, parasite or virus in culture; settings: Human immunodeficiency virus 1, NL4-3, MT2; remark: listed apart in the source
# Description: Antiviral activity against 0.05 MOI wild type HIV1 NL4-3 infected in 2 hr-pretreated human MT2 cells measured after 5 days by RT SPA
# [45] = test system: Human immunodeficiency virus 1; assay: microbe, parasite or virus in culture; settings: Human immunodeficiency virus 1, subtype B-93US143, PBMC
# Description: Antiviral activity against HIV1 subtype B-93US143 infected in 1 hr-pretreated PBMC cells assessed as inhibition of p24 antigen production measured on day 5 postinfection by ELISA
# [46] = Cmax in human blood; assay type: ADME, organism-based
# [47] = test system: Human immunodeficiency virus 1; assay: microbe, parasite or virus in culture; settings: Human immunodeficiency virus 1, subtype B-3B, MT2
# Description: Antiviral activity against HIV1 subtype B-3B infected in 1 hr-pretreated human MT2 cells assessed as inhibition of multicycle replication measured on day 5 postinfection by RT SPA
compound,measurement,setting,value
O=C1Nc2ccc(Cl)cc2[C@@](C#CC2CC2)(C(F)(F)F)O1 [EFAVIRENZ],pEC50,[1],9.70
C=C1[C@H](CO)[C@@H](O)C[C@@H]1n1cnc2c(=O)[nH]c(N)nc21.O [ENTECAVIR],pEC50,[2],5.89
same,pEC50,[3],6.82
same,pEC50,[4],5.87
same,pEC50,[5],< 5.00
same,pEC50,[6],< 5.00
same,pEC50,[7],6.08
same,pEC50,[8],< 5.00
same,pEC50,[9],< 4.00
same,pEC50,[10],< 5.54
same,pEC50,[11],< 5.00
same,pEC50,[12],6.96
same,pEC50,[13],6.35
same,pEC50,[14],4.87
same,pEC50,[15],5.02
same,Activity,[16],Active
same,pEC50,[17],< 5.20
same,pEC50,[18],< 2.00
same,pEC50,[19],10.00
same,pEC50,[20],7.59
same,pEC50,[21],6.54
same,pEC50,[22],4.51
same,pEC50,[23],7.02
same,pEC50,[24],5.85
same,pEC50,[25],< 5.00
same,Cmax,[26],30 nM
same,pEC50,[27],7.21
same,pEC50,[28],7.25
same,pEC50,[29],5.44
same,pEC50,[30],7.07
same,pEC50,[31],< 5.00
same,pEC50,[32],7.15
same,pEC50,[33],< 5.92
same,pEC50,[34],5.19
same,pEC50,[35],< 5.40
same,pEC50,[36],7.25
same,CC50,CEM-SS,21 µM
same,pEC50,[37],< 5.01
same,pEC50,[38],< 5.00
same,pEC50,[39],4.51
same,pEC50,[40],< 4.42
same,pEC50,[41],< 5.60
same,pEC50,[42],5.99
same,pEC50,[43],6.28
same,pEC50,Hepatitis B virus,8.40
same,pEC50,[44],< 2.00
same,pEC50,[1],< 5.00
same,pEC50,[45],5.76
same,Cmax,[46],30 nM
same,pEC50,[47],7.09
Nc1ccn([C@@H]2CS[C@H](CO)O2)c(=O)n1 [LAMIVUDINE],pEC50,[2],5.94
same,pEC50,[4],6.66
same,pEC50,[5],5.61
same,pEC50,[6],5.90
same,pEC50,[7],6.98
same,pEC50,[10],6.26
same,pEC50,[12],7.15
same,pEC50,[13],7.07
same,pEC50,[15],6.18
same,Activity,[16],inactive
same,pEC50,[17],6.01
same,pEC50,[18],5.70
same,pEC50,[20],7.40
same,pEC50,[23],7.20
same,pEC50,[27],7.09
same,pEC50,[28],7.40
same,pEC50,[29],6.34
same,pEC50,[30],6.77
same,pEC50,[31],5.49
same,pEC50,[32],6.74
same,pEC50,[34],6.43
same,pEC50,[36],7.40
same,pEC50,[37],5.77
same,pEC50,[38],6.03
same,pEC50,[40],< 4.00
same,pEC50,[42],6.69
same,pEC50,[43],6.74
same,pEC50,[44],5.61
same,pEC50,[1],< 5.00
same,pEC50,[45],6.07
same,pEC50,[47],7.33
Cc1c(O)cccc1C(=O)N[C@@H](CSc1ccccc1)[C@H](O)CN1C[C@H]2CCCC[C@H]2C[C@H]1C(=O)NC(C)(C)C [NELFINAVIR],pEC50,[40],7.54
Cc1cn([C@H]2C[C@H](N=[N+]=[N-])[C@@H](CO)O2)c(=O)[nH]c1=O [ZIDOVUDINE],pEC50,[2],7.80
same,pEC50,[4],7.57
same,pEC50,[5],6.65
same,pEC50,[6],6.93
same,pEC50,[7],8.54
same,pEC50,[10],7.42
same,pEC50,[12],7.74
same,pEC50,[13],7.74
same,pEC50,[15],7.12
same,pEC50,[17],7.27
same,pEC50,[18],6.68
same,pEC50,[20],7.80
same,pEC50,[23],8.10
same,pEC50,[27],8.10
same,pEC50,[28],8.00
same,pEC50,[29],7.29
same,pEC50,[30],8.31
same,pEC50,[31],6.52
same,pEC50,[32],8.42
same,pEC50,[34],7.37
same,pEC50,[36],8.00
same,pEC50,[37],6.84
same,pEC50,[38],7.06
same,pEC50,[40],< 5.00
same,pEC50,[42],7.85
same,pEC50,[43],8.20
same,pEC50,[44],6.60
same,pEC50,[1],8.30
same,pEC50,[45],7.47
same,pEC50,[47],8.92

# — ChEMBL document CHEMBL1255337, “Entecavir exhibits inhibitory activity against human immunodeficiency virus under conditions of reduced viral challenge” (Antimicrob Agents Chemother, 2008)
